Data published in paper PMC9933482 (ACS Omega, 2023).
In brackets after ≈: the same amount, converted by molar mass.

How the values were obtained:
[1] = system: HePG-2 cell line; test: MTT cytotoxicity assay, HePG-2; type: cell-based, human; details: for IC50: Homo sapiens, HepG2, 24 h, read-out: IC50 in μg/mL HePG-2, MTT, 24 h treatment
[2] = system: MCF-7 cell line; test: MTT cytotoxicity assay, MCF-7; type: cell-based, human; details: for IC50: Homo sapiens, MCF7, 24 h, read-out: IC50 in μg/mL MCF-7, MTT, 24 h treatment
[3] = system: human lung fibroblast cell line WI38; test: MTT cell viability, normal lung fibroblast WI38; type: cell-based; details: WI-38, read-out: IC50 in μg/mL WI38
[4] = biological target: human carbonic anhydrase IX (hCAIX) (Homo sapiens, UniProt Q16790); test: biochemical
[5] = biological target: recombinant human carbonic anhydrase XII (hCAXII) (Homo sapiens, UniProt O43570); test: hCAXII enzyme inhibition assay; type: biochemical
Sequence of recombinant human carbonic anhydrase XII (hCAXII) (O43570 25-291): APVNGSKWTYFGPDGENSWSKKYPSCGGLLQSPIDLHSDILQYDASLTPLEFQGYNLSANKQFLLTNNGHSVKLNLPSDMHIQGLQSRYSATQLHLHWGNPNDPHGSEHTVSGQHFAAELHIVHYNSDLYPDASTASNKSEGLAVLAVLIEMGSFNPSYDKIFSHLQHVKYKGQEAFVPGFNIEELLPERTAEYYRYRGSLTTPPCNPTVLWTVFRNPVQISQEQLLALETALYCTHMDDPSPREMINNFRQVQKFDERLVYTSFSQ

SMILES	IC50 [1]	IC50 [2]	IC50 [3]	IC50 [4]	anticancer/cytotoxic activity in words, HePG-2 [1]	anticancer/cytotoxic activity in words, MCF-7 [2]	IC50 [5]
Cc1ccc(-c2nn(-c3ccccc3)cc2C2c3sc(=O)[nH]c3SCC2C#N)cc1 (stereo not shown) [compound 7b, 7-(3-(4-Methylphenyl)-1-phenyl-1H-pyrazol-4-yl)-2-oxo-3,5,6,7-tetra-hydro-2H-thiopyrano-[2,3-d]thiazole-6-carbonitrile]	30.4 ± 1.1 µg/mL (≈ 70.7 µM)	35 ± 2.3 µg/mL (≈ 81.4 µM)	41.4 ± 1.7 µg/mL (≈ 96 µM)	–	–	–	–
CCOC(=O)C1CSc2[nH]c(=O)sc2C1c1cn(-c2ccccc2)nc1-c1ccc(C)cc1 (stereo not shown) [compound 7g, Ethyl 7-(3-(4-Methylphenyl)-1-phenyl-1H-pyrazol-4-yl)-2-oxo-3,5,6,7-tetrahydro-2H-thiopyrano[2,3-d]thiazole-6-carboxylate]	11.9 ± 2.7 µg/mL (≈ 24.9 µM)	12.3 ± 2.4 µg/mL (≈ 25.8 µM)	30.3 ± 1.7 µg/mL (≈ 63.5 µM)	390 ± 19 nM	strong cytotoxicity	strong cytotoxicity	566 ± 31 nM
CCOC(=O)C1CSc2[nH]c(=O)sc2C1c1cn(-c2ccccc2)nc1-c1ccccc1 (stereo not shown) [compound 7f, Ethyl 7-(1,3-Diphenyl-1H-pyrazol-4-yl)-2-oxo-3,5,6,7-tetrahydro-2H-thiopyrano[2,3-d]thiazole-6-carboxylate]	13.4 ± 1.2 µg/mL (≈ 28.8 µM)	15.9 ± 2.3 µg/mL (≈ 34.3 µM)	44.5 ± 4.5 µg/mL (≈ 96 µM)	928 ± 45 nM	moderate anticancer activity	moderate anticancer activity	1050 ± 57 nM
COc1ccc(-c2nn(-c3ccccc3)cc2C2c3sc(=O)[nH]c3SC3C(=O)N(c4ccccc4)C(=O)C32)cc1 (stereo not shown) [compound 5e, 8-(3-(4-Methoxyphenyl)-1-phenyl-1H-pyrazol-4-yl)-6-phenyl-7a,8-dihydro-pyrrolo-[3′,4′:5,6]thiopyrano[2,3-d]thiazole-2,5,7(3H,4aH,6H)-trione]	30.7 ± 0.3 µg/mL (≈ 54.2 µM)	35.7 ± 72 µg/mL (≈ 63 µM)	51.7 ± 3.7 µg/mL (≈ 91.2 µM)	–	–	–	–
O=C1NC(=S)C(=Cc2cn(-c3ccccc3)nc2-c2ccc(Cl)cc2)S1 [compound 3d, 5-[(3-(4-Chlorophenyl)-1-phenyl-1H-pyrazol-4-yl)methylene]-4-thioxo-2-thiazolidinone]	38.2 ± 2.7 µg/mL (≈ 96 µM)	30.8 ± 2.2 µg/mL (≈ 77.5 µM)	71.2 ± 4.2 µg/mL (≈ 179 µM)	–	moderate activity	moderate activity	–
Cc1ccc(-c2nn(-c3ccccc3)cc2C=C2SC(=O)NC2=S)cc1 [compound 3b, 5-[(3-(4-Methylphenyl)-1-phenyl-1H-pyrazol-4-yl)methylene]-4-thioxo-2-thiazolidinone]	62.2 ± 3.2 µg/mL (≈ 165 µM)	56.3 ± 3.4 µg/mL (≈ 149 µM)	25.3 ± 2.1 µg/mL (≈ 66.9 µM)	–	weak activity	weak activity	–
COc1ccc(-c2nn(-c3ccccc3)cc2C=C2SC(=O)NC2=S)cc1 [compound 3c, 5-[(3-(4-Methoxyphenyl)-1-phenyl-1H-pyrazol-4-yl)methylene]-4-thioxo-2-thiazolidinone]	31.2 ± 2.6 µg/mL (≈ 79.3 µM)	37.6 ± 3.4 µg/mL (≈ 95.5 µM)	64.5 ± 3.8 µg/mL (≈ 164 µM)	–	moderate activity	moderate activity	–
O=C1NC(=S)C(=Cc2cn(-c3ccccc3)nc2-c2ccccc2)S1 [compound 3a, 5-[(1,3-Diphenyl-1H-pyrazol-4-yl)methylene]-4-thioxo-2-thiazolidinone]	65.8 ± 3.3 µg/mL (≈ 181 µM)	52.1 ± 3.1 µg/mL (≈ 143 µM)	28.2 ± 2.3 µg/mL (≈ 77.6 µM)	–	weak activity	weak activity	–
CCOC(=O)C1CSc2[nH]c(=O)sc2C1c1cn(-c2ccccc2)nc1-c1ccc(Br)cc1 (stereo not shown) [compound 7j, Ethyl 7-(3-(4-Bromophenyl)-1-phenyl-1H-pyrazol-4-yl)-2-oxo-3,5,6,7-tetra-hydro-2H-thiopyrano[2,3-d]thiazole-6-carboxylate]	10.3 ± 4.8 µg/mL (≈ 18.9 µM)	11.8 ± 4 µg/mL (≈ 21.8 µM)	33.8 ± 2.5 µg/mL (≈ 62.2 µM)	239 ± 30 nM	strong cytotoxicity	strong cytotoxicity	589 ± 30 nM
COc1cccc2c1C(=O)c1c(O)c3c(c(O)c1C2=O)C[C@@](O)(C(=O)CO)C[C@@H]3O[C@H]1C[C@H](N)[C@H](O)[C@H](C)O1 [doxorubicin, reference compound]	–	–	8.87 ± 0.6 µg/mL (≈ 16.3 µM)	–	–	–	–
CCOC(=O)C1CSc2[nH]c(=O)sc2C1c1cn(-c2ccccc2)nc1-c1ccc(OC)cc1 (stereo not shown) [compound 7h, Ethyl 7-(3-(4-Methoxyphenyl)-1-phenyl-1H-pyrazol-4-yl)-2-oxo-3,5,6,7-tetrahydro-2H-thiopyrano[2,3-d]thiazole-6-carboxylate]	12.2 ± 1.1 µg/mL (≈ 24.7 µM)	11.4 ± 1.5 µg/mL (≈ 23 µM)	25.3 ± 2.2 µg/mL (≈ 51.3 µM)	133 ± 6 nM	strong cytotoxicity	strong cytotoxicity	409 ± 22 nM
O=C1C2Sc3[nH]c(=O)sc3C(c3cn(-c4ccccc4)nc3-c3ccc(Br)cc3)C2C(=O)N1c1ccccc1 (stereo not shown) [compound 5g, 8-(3-(4-Bromophenyl)-1-phenyl-1H-pyrazol-4-yl)-6-phenyl-7a,8-dihydro-pyrrolo[3′,4′:5,6]-thiopyrano[2,3-d]thiazole-2,5,7(3H,4aH,6H)-trione]	45 ± 3 µg/mL (≈ 73 µM)	42.9 ± 2.7 µg/mL (≈ 69.7 µM)	24.9 ± 2 µg/mL (≈ 40.4 µM)	–	weakly active	weakly active	–
O=C1C2Sc3[nH]c(=O)sc3C(c3cn(-c4ccccc4)nc3-c3ccc(Cl)cc3)C2C(=O)N1c1ccccc1 (stereo not shown) [compound 5f, 8-(3-(4-Chlorophenyl)-1-phenyl-1H-pyrazol-4-yl)-6-phenyl-7a,8-dihydro-pyrrolo[3′,4′:5,6]-thiopyrano[2,3-d]thiazole-2,5,7(3H,4aH,6H)-trione]	29 ± 2.1 µg/mL (≈ 50.8 µM)	25.4 ± 2.1 µg/mL (≈ 44.5 µM)	43 ± 3.1 µg/mL (≈ 75.3 µM)	–	almost moderate activity	almost moderate activity	–
COc1ccc(-c2nn(-c3ccccc3)cc2C2c3sc(=O)[nH]c3SCC2C#N)cc1 (stereo not shown) [7c, 7-(3-(4-Methoxyphenyl)-1-phenyl-1H-pyrazol-4-yl)-2-oxo-3,5,6,7-tetra-hydro-2H-thiopyrano[2,3-d]thiazole-6-carbonitrile]	24.1 ± 2.9 µg/mL (≈ 54 µM)	29.4 ± 1.1 µg/mL (≈ 65.9 µM)	51.9 ± 3.4 µg/mL (≈ 116 µM)	–	–	–	–
N#CC1CSc2[nH]c(=O)sc2C1c1cn(-c2ccccc2)nc1-c1ccc(Cl)cc1 (stereo not shown) [compound 7d, 7-(3-(4-Chlorophenyl)-1-phenyl-1H-pyrazol-4-yl)-2-oxo-3,5,6,7-tetra-hydro-2H-thiopyrano[2,3-d]thiazole-6-carbonitrile]	73 ± 4.3 µg/mL (≈ 162 µM)	67.3 ± 3.7 µg/mL (≈ 149 µM)	39.5 ± 1.7 µg/mL (≈ 87.6 µM)	–	weak activity	weak activity	–
O=C1C2Sc3[nH]c(=O)sc3C(c3cn(-c4ccccc4)nc3-c3ccccc3)C2C(=O)N1c1ccccc1 (stereo not shown) [compound 5a, 8-(1,3-Diphenyl-1H-pyrazol-4-yl)-6-phenyl-7a,8-dihydropyrrolo[3′,4′:5,6]-thiopyrano[2,3-d]thiazole-2,5,7(3H,4aH,6H)-trione]	38.4 ± 2.1 µg/mL (≈ 71.6 µM)	30.3 ± 0.4 µg/mL (≈ 56.5 µM)	65.7 ± 1.1 µg/mL (≈ 122 µM)	–	–	–	–
N#CC1CSc2[nH]c(=O)sc2C1c1cn(-c2ccccc2)nc1-c1ccccc1 (stereo not shown) [compound 7a, 7-(1,3-Diphenyl-1H-pyrazol-4-yl)-2-oxo-3,5,6,7-tetrahydro-2H-thiopyrano-[2,3-d]thiazole-6-carbonitrile]	26.8 ± 3.3 µg/mL (≈ 64.4 µM)	23.8 ± 1.9 µg/mL (≈ 57 µM)	54.6 ± 3.5 µg/mL (≈ 131 µM)	–	–	–	–
